Results on 12 molecules are retold here after patent publication US8198311B2, “Modulators of glucocorticoid receptor, AP-1, and/or NF-κB activity and use thereof” (Bristol-Myers Squibb Company, priority 2006, dated 2012).

In test [1] the target is T1, human full-length glucocorticoid receptor (Homo sapiens, UniProt P04150).
T1 construct: recombinantly expressed human full-length glucocorticoid receptor; purchased PanVera Co., Madison, Wis; P2816
T1 sequence (P04150 1-777): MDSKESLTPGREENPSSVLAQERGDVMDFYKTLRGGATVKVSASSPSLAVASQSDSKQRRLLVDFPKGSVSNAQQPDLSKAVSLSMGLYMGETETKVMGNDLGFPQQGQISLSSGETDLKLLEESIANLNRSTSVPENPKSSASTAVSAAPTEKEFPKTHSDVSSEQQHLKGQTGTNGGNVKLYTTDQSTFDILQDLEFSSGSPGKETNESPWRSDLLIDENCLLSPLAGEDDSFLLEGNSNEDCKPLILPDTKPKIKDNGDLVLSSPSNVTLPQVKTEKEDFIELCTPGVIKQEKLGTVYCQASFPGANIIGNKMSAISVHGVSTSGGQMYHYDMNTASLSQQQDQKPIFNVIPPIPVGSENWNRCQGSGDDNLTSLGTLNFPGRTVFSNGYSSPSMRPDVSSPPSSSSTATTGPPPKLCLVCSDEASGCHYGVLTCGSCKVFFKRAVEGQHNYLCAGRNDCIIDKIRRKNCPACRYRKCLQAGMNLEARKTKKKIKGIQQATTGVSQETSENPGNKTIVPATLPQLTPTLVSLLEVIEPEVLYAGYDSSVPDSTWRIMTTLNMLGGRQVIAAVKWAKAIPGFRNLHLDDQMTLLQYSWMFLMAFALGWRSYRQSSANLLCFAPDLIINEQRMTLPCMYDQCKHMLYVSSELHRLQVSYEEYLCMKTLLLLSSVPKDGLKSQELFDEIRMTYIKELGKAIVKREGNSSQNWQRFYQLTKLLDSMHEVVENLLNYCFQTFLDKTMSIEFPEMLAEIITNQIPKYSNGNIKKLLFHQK
The test is described as follows: Glucocorticoid Receptor Binding Assay (II), fluorescence polarization competitor kit (Fluormone GS1). To be noted: cell lysate with recombinant human full-length GR. The method, boiled down: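 Lysate with recombinant human full-length GR competed against 1 nM Fluormone GS1 tracer. Fluorescence polarization was read after 1 h at room temperature, with compounds tested from 2.4 nM to 40 microMolar.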
A general note: Fluorescence polarisation rises when a labelled molecule tumbles more slowly, as on binding a larger partner.

For test [2], the target named is T2, human glucocorticoid receptor (Homo sapiens, UniProt P04150).
T2 construct: purified human recombinant full-length glucocorticoid receptor (2 nM); purchased Invitrogen Part # 2893
T2 sequence (P04150 1-777): T1 sequence (P04150 1-777)
Kind of test: Glucocorticoid Receptor Binding Assay (I), fluorescence polarization competitor kit (Fluormone GS Red). To be noted: purified human recombinant full-length GR. The method, boiled down: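 Fluorescence polarization competition: full-length recombinant human GR (2 nM) incubated with 1 nM Fluormone GS Red plus test compound (8.5E-05 to 5 μM) for 2 h at room temperature in the dark before FP read-out.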

Test [3] concerns AP-1 induced transcriptional activity. Kind of test: Cellular Transrepressional Assay (AP-1 luciferase reporter in A549 cells, PMA-activated). The format is cell-based. To be noted: Homo sapiens, A549, 7 h, pAP-1-Luc, 10 ng/ml PMA, read-out: AP-1 (EC50, nM) (Cellular Transrepression Assay). The method, boiled down:
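A549 cells stably carrying a 7×AP-1-luciferase reporter, stimulated with 10 ng/ml PMA with or without compound (0.1 nM-40 μM) for 7 h. Luciferase luminescence read 10 min after reagent addition; repression is percentage decrease of PMA-alone signal, EC50 by curve fitting.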

Some results are limits rather than exact numbers.

The Ki is the dissociation constant of the complex between target and ligand, obtained from inhibition or displacement. One may read the EC50 as the concentration that produces a half-maximal response. On to `CC(C)(CNC(=O)NCC(F)(F)F)[C@@H](c1ccccc1)c1ccc2c(cnn2-c2ccc(F)cc2)c1` [Example 8, (S)-1-(3-(1-(4-fluorophenyl)-1H-indazol-5-yl)-2,2-dimethyl-3-phenylpropyl)-3-(2,2,2-trifluoroethyl)urea], for which the results for the Ki in test [1] and in test [2] were 9 nM and 17 nM, respectively. The concentration giving a half-maximal response (EC50) in test [3] was found to be 48 nM.
The corresponding values for `CC(C)(C)NC(=O)NCC(C)(C)[C@@H](c1ccccc1)c1ccc2c(cnn2-c2ccc(F)cc2)c1` [Example 9, (S)-1-tert-butyl-3-(3-(1-(4-fluorophenyl)-1H-indazol-5-yl)-2,2-dimethyl-3-phenylpropyl)urea] are 5.6 nM, 8.3 nM and 29 nM.
The corresponding values for `CC(C)CC(c1ccc2c(cnn2-c2ccc(F)cc2)c1)C(C)(C)CNC(=O)NC1CC1` (stereo not drawn) [Example 26, 1-cyclopropyl-3-(3-(1-(4-fluorophenyl)-1H-indazol-5-yl)-2,2,5-trimethylhexyl)urea] are 8.6 nM, 3.1 nM and 965 nM.
As to `CC(C)CC(c1ccc2c(cnn2-c2ccc(F)cc2)c1)C(C)(C)CNC(=O)NC1CCC1` (stereo not drawn) [Example 27, 1-cyclobutyl-3-(3-(1-(4-fluorophenyl)-1H-indazol-5-yl)-2,2,5-trimethylhexyl)urea], the Ki in test [1] was determined as 6.4 nM; in test [2], 4.6 nM. For the same molecule, the half-maximal effective concentration (EC50) in test [3] was 219 nM.
On the same counts, the results for `CC(C)CC(c1ccc2c(cnn2-c2ccc(F)cc2)c1)C(C)(C)CNC(=O)NC(C)(C)C` (stereo not drawn) [Example 28, 1-tert-butyl-3-(3-(1-(4-fluorophenyl)-1H-indazol-5-yl)-2,2,5-trimethylhexyl)urea] are 4.9 nM, 4.2 nM and 21 nM.
In the case of `CC(C)CC(c1ccc2c(cnn2-c2ccc(F)cc2)c1)C(C)(C)CNC(=O)NC(C)(C)CO` (stereo not drawn) [Example 29, 1-(3-(1-(4-fluorophenyl)-1H-indazol-5-yl)-2,2,5-trimethylhexyl)-3-(1-hydroxy-2-methylpropan-2-yl)urea], the Ki stood at 8 nM in test [1] and 2.5 nM in test [2]. In addition, the EC50 in test [3] came to 86 nM.
With `CC(C)CC(c1ccc2c(cnn2-c2ccc(F)cc2)c1)C(C)(C)CNC(=O)N1CCCC(C)(C)C1` (stereo not drawn) [Example 30, N-(3-(1-(4-fluorophenyl)-1H-indazol-5-yl)-2,2,5-trimethylhexyl)-3,3-dimethylpiperidine-1-carboxamide], the figures for the Ki in test [1] and in test [2] were 27 nM and 8.5 nM, respectively. In addition, the EC50 in test [3] is more than 10000 nM.
On the same counts, the results for `CC(C)CC(c1ccc2c(cnn2-c2ccc(F)cc2)c1)C(C)(C)CNC(=O)N(C)C(C)(C)C` (stereo not drawn) [Example 31, 1-tert-butyl-3-(3-(1-(4-fluorophenyl)-1H-indazol-5-yl)-2,2,5-trimethylhexyl)-1-methylurea] are 19 nM, 28 nM and 394 nM.
The corresponding values for `CC(C)CC(c1ccc2c(cnn2-c2ccc(F)cc2)c1)C(C)(C)CNC(=O)NC(C)(C)CN1CCCCC1` (stereo not drawn) [Example 32, 1-(3-(1-(4-fluorophenyl)-1H-indazol-5-yl)-2,2,5-trimethylhexyl)-3-(2-methyl-1-(piperidin-1-yl)propan-2-yl)urea] are 452 nM, 73 nM and more than 10000 nM.
With `CC(C)CC(c1ccc2c(cnn2-c2ccc(F)cc2)c1)C(C)(C)CNC(=O)NC(C)C` (stereo not drawn) [Example 34, 1-(3-(1-(4-fluorophenyl)-1H-indazol-5-yl)-2,2,5-trimethylhexyl)-3-isopropylurea], the Ki was determined as 7.1 nM in test [1] and 1.1 nM in test [2]. The EC50 in test [3] was 129 nM.
With `CC(C)CC(c1ccc2c(cnn2-c2ccc(F)cc2)c1)C(C)(C)CNC(=O)OCC(F)(F)F` (stereo not drawn) [Example 60, 2,2,2-trifluoroethyl 3-(1-(4-fluorophenyl)-1H-indazol-5-yl)-2,2,5-trimethylhexylcarbamate], the results for the Ki in test [1] and in test [2] were 24 nM and 41 nM, respectively. In test [3], the EC50 was found to be 234 nM.
In the case of `CC(C)(C(c1ccccc1)c1ccc2c(cnn2-c2ccc(F)cc2)c1)C(O)C1CC1` (stereo not drawn) [Example 122, 1-cyclopropyl-3-(1-(4-fluorophenyl)-1H-indazol-5-yl)-2,2-dimethyl-3-phenylpropan-1-ol], the inhibition constant (Ki) in test [1] came out at 34 nM; in test [2] it was 37 nM. Moreover, in test [3], the EC50 is more than 10000 nM.
